Measurements taken from ChEMBL document CHEMBL1201862, “PubChem BioAssay data set” (2004).
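Five concentrations, 48 hours, 96-well plates. GI50 is the concentration that inhibits growth by half.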 Activity calls are given as the source filed them. Rule as the data show it: active = GI50 up to about 1.1 µM and inactive = higher.

Columns and labels:
Assay in all cases: NCI tumour cell line growth inhibition, 48 h
Hs-578T = system: Hs-578T
MDA-MB-435 = system: MDA-MB-435
SNB-78 = system: SNB-78
KM-20L2 = system: KM-20L2
HOP-18 = system: HOP-18
DLD-1 = system: DLD-1
LXFL 529 = system: LXFL 529
DMS-273 = system: DMS-273
RXF 631 = system: RXF 631

Structure (SMILES) | GI50 (Hs-578T) | GI50 (MDA-MB-435) | GI50 (SNB-78) | GI50 (KM-20L2) | also measured
CN(C)c1ccc(C(=O)NCCCCCCC(=O)NO)cc1 | 0.9 µM (active) | 0.264 µM (active) | – | – | –
c1cc2c(cc1C1OCC3C(c4ccc5c(c4)OCO5)OCC13)OCO2 (configuration not stated) | – | – | > 100 µM (inactive) | 35.8 µM (inactive) | GI50 (HOP-18): > 100 µM (inactive); GI50 (DLD-1): 65.3 µM (inactive); GI50 (LXFL 529): 37.8 µM (inactive)
CC1C(=O)OC2CC[N+]3(CC(=O)c4ccc(Br)cc4)CC=C(COC(=O)C(C)(O)C1(C)O)C23 (configuration not stated) | – | – | 211 µM (inactive) | > 37.5 µM (inactive) | GI50 (DMS-273): > 128 µM (inactive); GI50 (HOP-18): > 375 µM (inactive); GI50 (DLD-1): > 375 µM (inactive)
C=C(C)C(=O)N1c2ccc(OC)cc2CC1C(=O)OCC (configuration not stated) | > 100 µM (inactive) | – | – | – | –
COc1ccc(N2C(=O)CS(=O)(=O)C2c2cccc(Oc3ccccc3)c2)cc1 (configuration not stated) | 3.78 µM (inactive) | 0.959 µM (active) | – | – | –
C=CC(c1ccccc1)C1(O)c2cccc(O)c2C(=O)c2c(O)cccc21 (configuration not stated) | 15.8 µM (inactive) | 4.01 µM (inactive) | – | – | –
CC(=O)N[C@@H](Cc1ccc(O)cn1)C(=O)NCc1ccc(Cl)cc1 | – | > 100 µM (inactive) | – | – | –
O=c1[nH]nc(Nc2ccccc2)c2nnn(Cc3ccccc3)c12 | 17.6 µM (inactive) | > 100 µM (inactive) | – | – | –
CCN1C2=NCCN2S(=O)(=O)c2ccccc21 | > 100 µM (inactive) | > 100 µM (inactive) | – | – | –
N#CCCN(CCCN(C(=O)Nc1ccc(NC(=O)N(CCCN(CCC#N)C(N)=O)c2ccccc2)cc1)c1ccccc1)C(N)=O | > 100 µM (inactive) | > 100 µM (inactive) | – | – | –
CCSCC(N)C(=O)O (configuration not stated) | > 100 µM (inactive) | > 100 µM (inactive) | – | – | –
O=c1c2ccccc2n2nnc3ccc(NCCCNCCNCCCNc4ccc5nnn6c7ccccc7c(=O)c4c56)c1c32 | 5.52 µM (inactive) | – | – | – | –
O=C1c2ccccc2C(=O)c2sc(Nc3ccc(Cl)cc3)nc21 | – | – | 3.49 µM (inactive) | 13.5 µM (inactive) | GI50 (DMS-273): 1.97 µM (inactive); GI50 (HOP-18): 2.24 µM (inactive); GI50 (DLD-1): 1.78 µM (inactive); GI50 (LXFL 529): 1.69 µM (inactive)
Brc1c2nc3ccccc3nc2n2ccc3ccccc3c12 | – | – | > 100 µM (inactive) | > 100 µM (inactive) | GI50 (DMS-273): > 100 µM (inactive); GI50 (DLD-1): > 100 µM (inactive); GI50 (LXFL 529): > 100 µM (inactive)
CO[C@H](c1ccccc1)[C@H](O)[C@](O)(c1ccccc1)P(=O)(OC)OC | – | > 100 µM (inactive) | – | – | –
CN(C)CCNC(=O)Cn1ccc(=O)c2ccc([N+](=O)[O-])cc21 | > 100 µM (inactive) | > 100 µM (inactive) | – | – | –

Structure (SMILES) | GI50 (Hs-578T) | GI50 (MDA-MB-435) | GI50 (SNB-78) | GI50 (KM-20L2) | also measured
COC(=O)c1nn(C(=N)c2ccc(Cl)cc2)c2c1CCC2 | – | – | > 100 µM (inactive) | > 100 µM (inactive) | GI50 (DMS-273): > 100 µM (inactive); GI50 (DLD-1): > 100 µM (inactive); GI50 (LXFL 529): > 100 µM (inactive)
Cn1nc(N)nc1N=S(C)(C)=N | – | – | > 100 µM (inactive) | > 100 µM (inactive) | GI50 (DMS-273): > 100 µM (inactive); GI50 (HOP-18): > 100 µM (inactive); GI50 (LXFL 529): > 100 µM (inactive)
CCCCN(CCCC)C(=O)/C(CC(=O)c1cccc2ccccc12)=N\NC(=O)c1cc2ccccc2cc1O | – | – | 24.7 µM (inactive) | 22.1 µM (inactive) | GI50 (RXF 631): 26.7 µM (inactive); GI50 (DLD-1): 23.4 µM (inactive); GI50 (LXFL 529): 27.3 µM (inactive)
O=C1CCCCCCCCCCC(=O)C2CCOCCOCCOCCC1Cc1cccc(n1)C2 | – | – | 79.6 µM (inactive) | > 100 µM (inactive) | GI50 (DMS-273): 54.5 µM (inactive); GI50 (RXF 631): 80.4 µM (inactive); GI50 (DLD-1): > 100 µM (inactive); GI50 (LXFL 529): 59.8 µM (inactive)
CCCOc1nc(N)c2cnn(C3CCCCO3)c2n1 (configuration not stated) | – | – | > 100 µM (inactive) | > 100 µM (inactive) | GI50 (DMS-273): > 100 µM (inactive); GI50 (HOP-18): 68.9 µM (inactive); GI50 (DLD-1): > 100 µM (inactive); GI50 (LXFL 529): > 100 µM (inactive)
CCCCCCCCCCCCCCCC(=O)OC(COC(C)=O)CO[PH](=O)O (configuration not stated) | 11.8 µM (inactive) | 29.5 µM (inactive) | – | – | –
S=C(S)NCC1CCC(CNC(=S)S)CC1 (configuration not stated) | > 100 µM (inactive) | 23.3 µM (inactive) | – | – | –
CC(C)(C)[Si](C)(C)O/N=C\c1cccc(O[Si](C)(C)C(C)(C)C)c1 | – | – | 15.7 µM (inactive) | 20.1 µM (inactive) | GI50 (DMS-273): 17.7 µM (inactive); GI50 (HOP-18): 22.5 µM (inactive); GI50 (DLD-1): 17.8 µM (inactive); GI50 (LXFL 529): 15.7 µM (inactive)
CC(C)(C)NC(=O)N1N=C(c2ccccc2)C1c1ccccc1 (configuration not stated) | 48.3 µM (inactive) | – | – | – | –
Cc1cccc2c1C(=O)[C@@](C)([C@]1(C)Nc3cccc(C)c3C1=O)N2 | > 100 µM (inactive) | 31.1 µM (inactive) | – | – | –
CCOC(=O)c1c(-c2ccc(OC)cc2)ccn1C | > 10 µM (inactive) | > 10 µM (inactive) | – | – | –
CCC/C(Cl)=N\OC(=O)Nc1cccc(C(F)(F)F)c1 | 29.7 µM (inactive) | – | – | – | –
Cn1ccnc1CC(C)(O)c1ccccc1 (configuration not stated) | > 100 µM (inactive) | > 100 µM (inactive) | – | – | –
CCCCn1c(CSc2ccc(Cl)cc2)c(C(=O)OCC)c2cc(OC)c(Br)cc21 | > 100 µM (inactive) | > 100 µM (inactive) | – | – | –
CN(CC1(CO)CCC1)c1cc(Cl)nc(N)n1 | > 100 µM (inactive) | > 100 µM (inactive) | – | – | –
N=C(N)NS(=O)(=O)c1ccc(/N=N/c2c(O)c(C(=O)O)cc3ccccc23)cc1 | > 100 µM (inactive) | > 100 µM (inactive) | – | – | –
